# In ChEMBL document CHEMBL1201862, “PubChem BioAssay data set” (2004):
#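 Assay format: 96-well plates, 48-hour exposure. At the GI50, growth is halved.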 Activity calls are given as the source filed them. No stated cut-off is given here; in the data, active = GI50 up to about 1.1 µM and inactive = higher.
# Tests used:
# Assay in all cases: NCI-60 cell line screen, 48 h
# SK-MEL-5 = tested on: SK-MEL-5
# RPMI-8226 = tested on: RPMI-8226
# A498 = tested on: A498
# HOP-62 = tested on: HOP-62
# SW-620 = tested on: SW-620
# Malme-3M = tested on: Malme-3M
# NCI-H460 = tested on: NCI-H460
# MOLT-4 = tested on: MOLT-4
# U-251 = tested on: U-251
# NCI-H23 = tested on: NCI-H23
# EKVX = tested on: EKVX
# HCC 2998 = tested on: HCC 2998
# KM12 = tested on: KM12
# DMS-114 = tested on: DMS-114
# SNB-75 = tested on: SNB-75
# SNB-78 = tested on: SNB-78
# CAKI-1 = tested on: CAKI-1
# SK-MEL-2 = tested on: SK-MEL-2
# NCI-H522 = tested on: NCI-H522
# LOX IMVI = tested on: LOX IMVI
# M19-MEL = tested on: M19-MEL
# UACC-257 = tested on: UACC-257
# A549 = tested on: A549
# UO-31 = tested on: UO-31
# M14 = tested on: M14
# LXFL 529 = tested on: LXFL 529
# CCRF-CEM = tested on: CCRF-CEM
# HOP-92 = tested on: HOP-92
# OVCAR-5 = tested on: OVCAR-5
# SK-MEL-28 = tested on: SK-MEL-28
# HL-60 = tested on: HL-60
# TK-10 = tested on: TK-10
# 786-0 = tested on: 786-0
# SK-OV-3 = tested on: SK-OV-3
# KM-20L2 = tested on: KM-20L2
# IGROV-1 = tested on: IGROV-1
# HCT-15 = tested on: HCT-15
# UACC-62 = tested on: UACC-62
# SNB-19 = tested on: SNB-19
# RXF 631 = tested on: RXF 631
# HCT-116 = tested on: HCT-116
# SF-268 = tested on: SF-268
# OVCAR-4 = tested on: OVCAR-4
# DLD-1 = tested on: DLD-1
# ACHN = tested on: ACHN
# COLO 205 = tested on: COLO 205
# SF-539 = tested on: SF-539
# RXF 393 = tested on: RXF 393
# OVCAR-3 = tested on: OVCAR-3
# OVCAR-8 = tested on: OVCAR-8
# K562 = tested on: K562
# SF-295 = tested on: SF-295
# XF498 = tested on: XF498
# HOP-18 = tested on: HOP-18
# SR = tested on: SR
# SN12C = tested on: SN12C
# DMS-273 = tested on: DMS-273
# HT-29 = tested on: HT-29
# NCI-H226 = tested on: NCI-H226
smiles,measurement,setting,value
NC(=O)C(=O)C1CCC2=C(Sc3ccccc3N2)C1=O (centres undefined),GI50,SK-MEL-5,> 100 µM (inactive)
same,GI50,RPMI-8226,> 100 µM (inactive)
same,GI50,A498,> 100 µM (inactive)
same,GI50,HOP-62,> 100 µM (inactive)
same,GI50,SW-620,> 100 µM (inactive)
same,GI50,Malme-3M,> 100 µM (inactive)
same,GI50,NCI-H460,> 100 µM (inactive)
same,GI50,MOLT-4,> 100 µM (inactive)
same,GI50,U-251,> 100 µM (inactive)
same,GI50,NCI-H23,> 100 µM (inactive)
same,GI50,EKVX,> 100 µM (inactive)
same,GI50,HCC 2998,> 100 µM (inactive)
same,GI50,KM12,> 100 µM (inactive)
same,GI50,DMS-114,> 100 µM (inactive)
same,GI50,SNB-75,> 100 µM (inactive)
same,GI50,SNB-78,> 100 µM (inactive)
same,GI50,CAKI-1,> 100 µM (inactive)
same,GI50,SK-MEL-2,> 100 µM (inactive)
same,GI50,NCI-H522,37.5 µM (inactive)
same,GI50,LOX IMVI,> 100 µM (inactive)
same,GI50,M19-MEL,> 100 µM (inactive)
same,GI50,UACC-257,> 100 µM (inactive)
same,GI50,A549,> 100 µM (inactive)
same,GI50,UO-31,> 100 µM (inactive)
same,GI50,M14,> 100 µM (inactive)
same,GI50,LXFL 529,> 100 µM (inactive)
same,GI50,CCRF-CEM,> 10 µM (inactive)
same,GI50,HOP-92,27.4 µM (inactive)
same,GI50,OVCAR-5,> 100 µM (inactive)
same,GI50,SK-MEL-28,> 100 µM (inactive)
same,GI50,HL-60,> 100 µM (inactive)
same,GI50,TK-10,> 100 µM (inactive)
same,GI50,786-0,> 100 µM (inactive)
same,GI50,SK-OV-3,> 100 µM (inactive)
same,GI50,KM-20L2,> 100 µM (inactive)
same,GI50,IGROV-1,> 100 µM (inactive)
same,GI50,HCT-15,> 100 µM
same,GI50,UACC-62,> 100 µM (inactive)
same,GI50,SNB-19,> 100 µM (inactive)
same,GI50,RXF 631,> 100 µM (inactive)
same,GI50,HCT-116,> 100 µM (inactive)
same,GI50,SF-268,> 100 µM (inactive)
same,GI50,OVCAR-4,> 100 µM (inactive)
same,GI50,DLD-1,> 100 µM (inactive)
same,GI50,ACHN,> 100 µM (inactive)
same,GI50,COLO 205,> 100 µM (inactive)
same,GI50,SF-539,> 100 µM (inactive)
same,GI50,RXF 393,> 100 µM (inactive)
same,GI50,OVCAR-3,> 100 µM (inactive)
same,GI50,OVCAR-8,> 100 µM (inactive)
same,GI50,K562,> 100 µM (inactive)
CN(C)c1nc(N(C)C)n2nc(-c3ccccc3[N+](=O)[O-])nc2n1,GI50,SK-MEL-5,> 100 µM (inactive)
same,GI50,RPMI-8226,89.7 µM (inactive)
same,GI50,A498,> 100 µM (inactive)
same,GI50,HOP-62,> 100 µM (inactive)
same,GI50,SW-620,10.1 µM (inactive)
same,GI50,Malme-3M,> 100 µM (inactive)
same,GI50,NCI-H460,78.7 µM (inactive)
same,GI50,MOLT-4,> 100 µM (inactive)
same,GI50,U-251,> 100 µM (inactive)
same,GI50,NCI-H23,> 100 µM (inactive)
same,GI50,EKVX,> 100 µM (inactive)
same,GI50,HCC 2998,> 100 µM (inactive)
same,GI50,KM12,> 100 µM (inactive)
same,GI50,DMS-114,> 100 µM (inactive)
same,GI50,SNB-75,> 100 µM (inactive)
same,GI50,SNB-78,> 100 µM (inactive)
same,GI50,CAKI-1,> 100 µM (inactive)
same,GI50,SF-295,> 100 µM (inactive)
same,GI50,SK-MEL-2,> 100 µM (inactive)
same,GI50,NCI-H522,> 100 µM (inactive)
same,GI50,LOX IMVI,> 100 µM (inactive)
same,GI50,XF498,> 100 µM (inactive)
same,GI50,M19-MEL,> 100 µM (inactive)
same,GI50,UACC-257,> 100 µM (inactive)
same,GI50,A549,> 100 µM (inactive)
same,GI50,HOP-18,> 100 µM (inactive)
same,GI50,UO-31,> 100 µM (inactive)
same,GI50,SR,> 100 µM (inactive)
same,GI50,M14,> 100 µM (inactive)
same,GI50,LXFL 529,86.3 µM (inactive)
same,GI50,CCRF-CEM,> 100 µM (inactive)
same,GI50,HOP-92,> 100 µM (inactive)
same,GI50,SN12C,> 100 µM (inactive)
same,GI50,OVCAR-5,> 100 µM (inactive)
same,GI50,SK-MEL-28,> 100 µM (inactive)
same,GI50,HL-60,> 100 µM (inactive)
same,GI50,DMS-273,33.5 µM (inactive)
same,GI50,TK-10,> 100 µM (inactive)
same,GI50,786-0,49.9 µM (inactive)
same,GI50,SK-OV-3,> 100 µM (inactive)
same,GI50,KM-20L2,> 100 µM (inactive)
same,GI50,IGROV-1,> 100 µM (inactive)
same,GI50,HCT-15,16.3 µM
same,GI50,UACC-62,> 100 µM (inactive)
same,GI50,SNB-19,> 100 µM (inactive)
same,GI50,HT-29,> 100 µM (inactive)
same,GI50,HCT-116,35.6 µM (inactive)
same,GI50,NCI-H226,> 100 µM (inactive)
same,GI50,SF-268,> 100 µM (inactive)
same,GI50,OVCAR-4,> 100 µM (inactive)
same,GI50,DLD-1,48.5 µM (inactive)
same,GI50,ACHN,> 100 µM (inactive)
same,GI50,COLO 205,70.1 µM (inactive)
same,GI50,SF-539,33 µM (inactive)
same,GI50,RXF 393,> 100 µM (inactive)
same,GI50,OVCAR-3,> 100 µM (inactive)
same,GI50,OVCAR-8,> 100 µM (inactive)
same,GI50,K562,> 100 µM (inactive)
